Laboratory results reported in patent US20100074083A1, “RESIN COMPOSITION AND MOLDED PRODUCT OBTAINED BY MOLDING THE RESIN COMPOSITION” (MITSUI CHEMICALS, INC., priority 2006, published 2010).

Columns and labels:
[1] = Hexane solubility; assay type: physicochemical; conditions: stirred 1 hour, naked eye; for Hexane solubility 43 g: 43 g sample in 100 g n-hexane at 23° C.; for Hexane solubility 100 g: 100 g sample in 100 g n-hexane at 23° C.
Experimental: The samples in an amount as shown in Table 1 were added into 100 g of n-hexane at 23° C., and the mixture was stirred for 1 hour, and thereafter the state was evaluated with naked eyes on the basis of following criteria.
(Criteria for Evaluation)
S; Completely dissolved, C; Dissolved, but insoluble materials remained, and I.S.; Substantially not dissolved.

[2] = Weight reducing temperature at heating (heat resistance, TG-DTA); assay type: physicochemical; conditions: heated at 5° C./minutes under nitrogen
Experimental: The sample was heated at 5° C./minutes under nitrogen, and measured by means of TG8120 type TG-DTA device manufactured by Rigaku Corporation.

Row | Structure (SMILES) | Hexane solubility 43 g [1] | Hexane solubility 100 g [1] | Heat resistance 1% by weight reducing temperature [2] [°C] | Heat resistance 5% by weight reducing temperature [2] [°C] | Hexane solubility 25 g ([1]; 25 g sample in 100 g n-hexane at 23° C.)
1 | CCCCCCCCCCCCN(c1nc(N(CCCCCCCCCCCC)C2CC(C)(C)NC(C)(C)C2)nc(N(CCCCCCCCCCCC)C2CC(C)(C)NC(C)(C)C2)n1)C1CC(C)(C)NC(C)(C)C1 [Exemplary compound 3, N,N′,N″-trilauryl-N,N′,N″-tris(2,2,6,6-tetramethyl-4-piperidin-4-yl)-[1,3,5]-triazine-2,4,6-triamine] | S | S | 246.2 | 377.1 | –
2 | CCCCCCCCCCCCNc1nc(N(CCCC)C2CC(C)(C)NC(C)(C)C2)nc(N(CCCC)C2CC(C)(C)NC(C)(C)C2)n1 [Exemplary compound 9, N,N′-dibutyl-N″-dodecyl-N,N′-bis(2,2,6,6-tetramethyl-4-piperidyl)-1,3,5-triazine-2,4,6-triamine] | S | – | – | – | –
3 | CCCCCCCCCCCCN(CCCNc1nc(N(CCCC)C2CC(C)(C)N(C)C(C)(C)C2)nc(N(CCCC)C2CC(C)(C)N(C)C(C)(C)C2)n1)CCCNc1nc(N(CCCC)C2CC(C)(C)N(C)C(C)(C)C2)nc(N(CCCC)C2CC(C)(C)N(C)C(C)(C)C2)n1 [Exemplary compound 4] | S | S | 292.7 | 357.2 | –
4 | CCCCCCCCCCCCNc1nc(N(CCCCCCCCCCCC)C2CC(C)(C)NC(C)(C)C2)nc(N(CCCCCCCCCCCC)C2CC(C)(C)NC(C)(C)C2)n1 [Exemplary compound 2, N,N′,N″-trilauryl-N,N′-bis-(2,2,6,6-tetramethylpiperidin-4-yl)-[1,3,5]-triazine-2,4,6-triamine] | S | S | 292.9 | 366.7 | –
5 | CCCCNc1nc(N(CCCC)C2CC(C)(C)NC(C)(C)C2)nc(N(CCCC)C2CC(C)(C)NC(C)(C)C2)n1 [Exemplary compound 10, N,N′,N″-tributyl-N,N′-bis(2,2,6,6-tetramethyl-4-piperidyl)-1,3,5-triazine-2,4,6-triamine] | S | – | – | – | –
6 | CCCCN(c1nc(N(CCCC)C2CC(C)(C)N(C)C(C)(C)C2)nc(N(CCCC)C2CC(C)(C)N(C)C(C)(C)C2)n1)C1CC(C)(C)N(C)C(C)(C)C1 [Exemplary compound 6, N,N′,N″-tributyl-N,N′,N″-tris-(1,2,2,6,6-pentamethyl-4-piperidinyl)-[1,3,5]-triazine-2,4,6-triamine] | S | S | 250.7 | 320.2 | –
7 | CCCCCCCCCCCCN(c1nc(N(CCCCCCCCCCCC)C2CC(C)(C)N(C)C(C)(C)C2)nc(N(CCCCCCCCCCCC)C2CC(C)(C)N(C)C(C)(C)C2)n1)C1CC(C)(C)N(C)C(C)(C)C1 [Exemplary compound 8, N,N′,N″-tridodecyl-N,N′,N″-tris-(1,2,2,6,6-pentamethyl-4-piperidinyl)-[1,3,5]-triazine-2,4,6-triamine] | S | S | 330.1 | 378.2 | –
8 | CCCCCCCCCCCCNc1nc(N(CCCC)C2CC(C)(C)N(C)C(C)(C)C2)nc(N(CCCC)C2CC(C)(C)N(C)C(C)(C)C2)n1 [Exemplary compound 1, N,N′-dibutyl-,N″-lauryl-N,N′-bis-(1,2,2,6,6-pentamethyl-4-piperidin-4-yl)-[1,3,5]-triazine-2,4,6-triamine] | S | S | 271.6 | 333.4 | –
9 | CCCCCCCCCCCCNC1CC(C)(C)NC(C)(C)C1 [Exemplary compound 5, N-dodecyl-2,2,6,6-tetramethyl piperidine-4-amine] | S | S | 103.3 | 188.1 | –
10 | CCCCCCCCN(c1nc(N(CCCCCCCC)C2CC(C)(C)N(C)C(C)(C)C2)nc(N(CCCCCCCC)C2CC(C)(C)N(C)C(C)(C)C2)n1)C1CC(C)(C)N(C)C(C)(C)C1 [Exemplary compound 7, N,N′,N″-trioctyl-N,N′,N″-tris-(1,2,2,6,6-pentamethyl-4-piperidinyl)-[1,3,5]-triazine-2,4,6-triamine] | S | S | 291.5 | 340.1 | –

Second part, the molecule after the results:

Row | Hexane solubility 43 g [1] | Hexane solubility 100 g [1] | Heat resistance 1% by weight reducing temperature [2] [°C] | Heat resistance 5% by weight reducing temperature [2] [°C] | Hexane solubility 25 g ([1]; 25 g sample in 100 g n-hexane at 23° C.) | Structure (SMILES)
11 | S | S | – | – | – | CCCCCCCCN(CCCCCCCC)c1nc(N(CCCC)C2CC(C)(C)NC(C)(C)C2)nc(N(CCCC)C2CC(C)(C)NC(C)(C)C2)n1 [Exemplary compound 12, N,N′-dibutyl-N,N′-bis(2,2,6,6-tetramethyl-4-piperidyl)-N″, N″-dioctyl-1,3,5-triazine-2,4,6-triamine]
12 | S | S | – | – | – | CCCCCCCCCCCCNc1nc(N(CCCCCCCC)C2CC(C)(C)N(C)C(C)(C)C2)nc(N(CCCCCCCC)C2CC(C)(C)N(C)C(C)(C)C2)n1 [Exemplary compound 13, N-dodecyl-N′,N″-bis(1,2,2,6,6-pentamethyl-4-piperidyl)-N′,N″-dioctyl-1,3,5-triazine-2,4,6-triamine]
13 | S | S | – | – | – | CCCCCCCCCCCCN(c1nc(NCCCC)nc(N(CCCCCCCCCCCC)C2CC(C)(C)NC(C)(C)C2)n1)C1CC(C)(C)NC(C)(C)C1 [Exemplary compound 14, N-butyl-N′,N″-didodecyl-N′,N″-bis(2,2,6,6-tetramethyl-4-piperidyl)-1,3,5-triazine-2,4,6-triamine]
14 | – | – | 207.4 | 248.4 | I.S. | CC1(C)CC(OC(=O)CCCCCCCCC(=O)OC2CC(C)(C)NC(C)(C)C2)CC(C)(C)N1 [TINUVIN 770]
15 | S | S | – | – | – | CCCCN(CCCC)c1nc(N(CCCC)C2CC(C)(C)NC(C)(C)C2)nc(N(CCCC)C2CC(C)(C)NC(C)(C)C2)n1 [Exemplary compound 11, N,N′,N″,N″-tetrabutyl-N,N′-bis(2,2,6,6-tetramethyl-4-piperidyl)-1,3,5-triazine-2,4,6-triamine]
